Source: PubChem BioAssay (NCI)
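Each compound was tested at five concentrations against cells in 96-well plates for 48 hours. TGI is the concentration that stops growth completely.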

Columns and labels:
Assay in all cases: NCI-60 cell line screen, 48 h
NCI-H522 lung = tested on: NCI-H522 lung
NCI-H23 lung = tested on: NCI-H23 lung
SF-295 CNS = tested on: SF-295 CNS
EKVX NSCLC = tested on: EKVX NSCLC
SK-MEL-5 melanoma = tested on: SK-MEL-5 melanoma
786-0 renal = tested on: 786-0 renal
IGROV1 ovarian = tested on: IGROV1 ovarian
UO-31 renal = tested on: UO-31 renal
PC-3 prostate = tested on: PC-3 prostate
CAKI-1 renal = tested on: CAKI-1 renal
HL-60(TB) leukemia = tested on: HL-60(TB) leukemia
HCT-15 colon = tested on: HCT-15 colon
OVCAR-4 ovarian = tested on: OVCAR-4 ovarian
HOP-92 NSCLC = tested on: HOP-92 NSCLC
SK-MEL-28 melanoma = tested on: SK-MEL-28 melanoma
HT29 colon = tested on: HT29 colon
HOP-62 NSCLC = tested on: HOP-62 NSCLC
MDA-MB-231 breast = tested on: MDA-MB-231 breast
K-562 leukemia = tested on: K-562 leukemia
OVCAR-3 ovarian = tested on: OVCAR-3 ovarian
COLO 205 colon = tested on: COLO 205 colon
SK-MEL-2 melanoma = tested on: SK-MEL-2 melanoma
MDA-N = tested on: MDA-N
MDA-MB-435 = tested on: MDA-MB-435
UACC-62 melanoma = tested on: UACC-62 melanoma
SK-OV-3 ovarian = tested on: SK-OV-3 ovarian
NCI/ADR-RES ovarian = tested on: NCI/ADR-RES ovarian
SF-539 CNS = tested on: SF-539 CNS
DU-145 prostate = tested on: DU-145 prostate
NCI-H460 lung = tested on: NCI-H460 lung
NCI-H226 lung = tested on: NCI-H226 lung
ACHN renal = tested on: ACHN renal
SNB-75 CNS = tested on: SNB-75 CNS
MALME-3M melanoma = tested on: MALME-3M melanoma
LOX IMVI melanoma = tested on: LOX IMVI melanoma
SNB-19 CNS = tested on: SNB-19 CNS
A549 NSCLC = tested on: A549 NSCLC
T-47D breast = tested on: T-47D breast
RXF 393 renal = tested on: RXF 393 renal
UACC-257 melanoma = tested on: UACC-257 melanoma
RPMI-8226 leukemia = tested on: RPMI-8226 leukemia
SF-268 CNS = tested on: SF-268 CNS
SR leukemia = tested on: SR leukemia
OVCAR-8 ovarian = tested on: OVCAR-8 ovarian
U251 CNS = tested on: U251 CNS
HS 578T breast = tested on: HS 578T breast
TK-10 renal = tested on: TK-10 renal
SW-620 colon = tested on: SW-620 colon
CCRF-CEM leukemia = tested on: CCRF-CEM leukemia
MOLT-4 leukemia = tested on: MOLT-4 leukemia
M14 melanoma = tested on: M14 melanoma
KM12 colon = tested on: KM12 colon
HCT-116 colon = tested on: HCT-116 colon
MCF7 breast = tested on: MCF7 breast
SN12C renal = tested on: SN12C renal
OVCAR-5 ovarian = tested on: OVCAR-5 ovarian

Measured: TGI

Cc1cc(=O)oc2c(CNC(C(=O)O)C(C)O)c(O)ccc12 (stereo unspecified)
> 100 µM: all assays above
